Molecular target: α-bungarotoxin-binding nicotinic receptors on primary human macrophages (Homo sapiens, UniProt P36544)
Sequence (P36544 23-502): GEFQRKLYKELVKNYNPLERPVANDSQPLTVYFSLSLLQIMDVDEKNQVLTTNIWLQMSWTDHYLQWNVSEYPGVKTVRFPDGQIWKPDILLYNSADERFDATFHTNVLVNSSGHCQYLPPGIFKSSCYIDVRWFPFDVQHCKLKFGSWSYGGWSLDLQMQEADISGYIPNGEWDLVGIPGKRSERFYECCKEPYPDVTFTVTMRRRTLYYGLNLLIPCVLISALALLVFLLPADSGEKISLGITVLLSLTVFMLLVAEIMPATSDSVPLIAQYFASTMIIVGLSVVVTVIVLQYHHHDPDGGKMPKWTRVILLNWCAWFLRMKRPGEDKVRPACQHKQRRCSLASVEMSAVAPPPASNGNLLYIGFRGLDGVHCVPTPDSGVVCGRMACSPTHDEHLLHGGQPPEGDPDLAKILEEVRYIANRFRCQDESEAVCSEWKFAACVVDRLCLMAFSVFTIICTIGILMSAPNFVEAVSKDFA

Compound	effect on intensity of α-bungarotoxin binding	binding on the macrophage surface
CN1CCCC1c1cccnc1 (centres unmarked) [Nicotine]	markedly reduced	
α-bungarotoxin		Strong binding

— patent publication US8524866B2, “Antibodies to the alpha-7 nicotinic receptors and methods of treating inflammatory disorders with the same” (The Feinstein Institute for Medical Research, priority 2005, dated 2013)
